Molecular target: T1, glucocorticoid receptor (Homo sapiens, UniProt P04150)
T1 construct: endogenous in cells; ATCC cat
T1 sequence (P04150 1-777): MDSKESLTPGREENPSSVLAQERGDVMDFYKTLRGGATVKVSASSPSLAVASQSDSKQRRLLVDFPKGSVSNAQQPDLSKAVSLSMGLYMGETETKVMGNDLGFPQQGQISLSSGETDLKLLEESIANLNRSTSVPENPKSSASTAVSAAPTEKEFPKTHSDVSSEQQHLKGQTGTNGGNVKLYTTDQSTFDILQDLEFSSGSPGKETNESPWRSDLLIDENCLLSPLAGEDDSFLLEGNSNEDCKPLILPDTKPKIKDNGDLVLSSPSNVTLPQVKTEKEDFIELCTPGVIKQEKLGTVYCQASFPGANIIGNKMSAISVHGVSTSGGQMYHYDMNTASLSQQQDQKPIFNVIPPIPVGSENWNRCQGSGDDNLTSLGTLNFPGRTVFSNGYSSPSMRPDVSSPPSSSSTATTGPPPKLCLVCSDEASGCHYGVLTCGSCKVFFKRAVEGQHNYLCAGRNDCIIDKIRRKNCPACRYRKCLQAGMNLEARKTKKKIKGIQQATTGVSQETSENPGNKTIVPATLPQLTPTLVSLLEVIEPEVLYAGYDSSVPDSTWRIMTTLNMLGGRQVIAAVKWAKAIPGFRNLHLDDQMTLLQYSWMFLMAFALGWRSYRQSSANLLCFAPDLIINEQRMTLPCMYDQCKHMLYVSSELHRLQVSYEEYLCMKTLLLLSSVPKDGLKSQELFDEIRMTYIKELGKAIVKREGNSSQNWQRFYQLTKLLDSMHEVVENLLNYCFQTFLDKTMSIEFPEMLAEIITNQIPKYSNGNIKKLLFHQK
Experiment: Hep G2 TAT Ki: inhibition of dexamethasone-induced TAT in HepG2 cells (96 well)
Assay type: cell-based
Conditions: challenge of 100 nM dexamethasone, IC50 converted to Ki by Cheng and Prusoff equation
Protocol: Glucocorticoid mediated activation of TAT occurs by transactivation of glucocorticoid response elements in the TAT promoter by glucocorticoid receptor-agonist complex.
HepG2 cells were cultured using MEME media supplemented with 10% (v/v) foetal bovine serum; 2 mM L-glutamine and 1% (v/v) NEAA at 37° C., 5%/95% (v/v) CO2/air.
Compounds were serially half log diluted in 100% (v/v) dimethylsulphoxide from a 10 mM stock.
HepG2 cells were then lysed with 30 μl of cell lysis buffer containing a protease inhibitor cocktail for 15 minutes at 4° C. […] After 2 hours incubation at 37° C. the reaction was terminated by the addition of 15 μl of 10M aqueous potassium hydroxide solution, and the plates incubated for a further 30 minutes at 37° C.
[compound] and fitting the data to a 4 parameter logistic equation.

Compound | Ki [nM]
5-(1-(2-fluoro-2-methylpropyl)-4-((2-methyl-2H-1,2,3-triazol-4-yl)sulfonyl)piperazin-2-yl)-1-(4-fluorophenyl)-6-methyl-1H-indazole [Example 162a] | 57
Cc1cc2c(cnn2-c2ccc(F)cc2)cc1[C@@H]1CN(S(=O)(=O)c2cnn(C)n2)CCN1C[C@H]1C[C@@H](O)C1 (racemic) [Example 154, 3-((2-(1-(4-fluorophenyl)-6-methyl-1H-indazol-5-yl)-4-((2-methyl-2H-1,2,3-triazol-4-yl)sulfonyl)piperazin-1-yl)methyl)cyclobutan-1-ol] | 24
Cc1cc2c(cnn2-c2ccc(F)cc2)cc1[C@@H]1CN(S(=O)(=O)c2cnn(C)n2)CCN1C[C@H](C)F (racemic) [Example 158, 1-(4-fluorophenyl)-5-(1-(2-fluoropropyl)-4-((2-methyl-2H-1,2,3-triazol-4-yl)sulfonyl)piperazin-2-yl)-6-methyl-1H-indazole] | 45
Cc1cc2c(cnn2-c2ccc(F)cc2)cc1[C@H]1CN(S(=O)(=O)c2cnn(C)n2)C[C@@H](C)N1CC(C)C (relative stereo) [Example 127] | 22
CO[C@H]1C[C@@H](CN2CCN(S(=O)(=O)c3cnn(C)n3)C[C@H]2c2cc3cnn(-c4ccc(F)cc4)c3cc2C)C1 (relative stereo) [Example 155, 1-(4-fluorophenyl)-5-(1-((3-methoxycyclobutyl)methyl)-4-((2-methyl-2H-1,2,3-triazol-4-yl)sulfonyl)piperazin-2-yl)-6-methyl-1H-indazole] | 11
CO[C@H]1C[C@@H](CN2CCN(S(=O)(=O)c3cnc(C)s3)C[C@@H]2c2cc3cnn(-c4ccc(F)cc4)c3cc2C)C1 (relative stereo) [Example 172, 5-((3-(1-(4-fluorophenyl)-6-methyl-1H-indazol-5-yl)-4-((3-methoxycyclobutyl)methyl)piperazin-1-yl)sulfonyl)-2-methylthiazole] | 36
Cc1cc2c(cnn2-c2ccc(F)cc2)cc1C1CN(S(=O)(=O)c2ccn(C)n2)CCN1CC(C)C (single isomer, unassigned) [Example 1, 1-(4-fluorophenyl)-5-(1-isobutyl-4-((1-methyl-1H-pyrazol-3-yl)sulfonyl)piperazin-2-yl)-6-methyl-1H-indazole] | 35
Cc1cc2c(cnn2-c2ccc(F)cc2)cc1C1CN(S(=O)(=O)c2cnn(C)n2)CCN1Cc1ccccc1 (single isomer, unassigned) [Example 5, 5-(1-benzyl-4-((2-methyl-2H-1,2,3-triazol-4-yl)sulfonyl)piperazin-2-yl)-1-(4-fluorophenyl)-6-methyl-1H-indazole] | 420
Cc1cc2c(cnn2-c2ccc(F)cc2)cc1C1CN(S(=O)(=O)c2cnn(C)n2)CCN1Cc1ccccc1 (single isomer, unassigned) [Example 6, 5-(1-benzyl-4-((2-methyl-2H-1,2,3-triazol-4-yl)sulfonyl)piperazin-2-yl)-1-(4-fluorophenyl)-6-methyl-1H-indazole] | 46
Cc1cc2c(cnn2-c2ccc(F)cc2)cc1C1CN(S(=O)(=O)c2cnn(C)n2)CCN1CC(C)C (single isomer, unassigned) [Example 10, 1-(4-fluorophenyl)-5-(1-isobutyl-4-((2-methyl-2H-1,2,3-triazol-4-yl)sulfonyl)piperazin-2-yl)-6-methyl-1H-indazole] | 430
Cc1cc2c(cnn2-c2ccc(F)cc2)cc1C1CN(S(=O)(=O)c2cnn(C)n2)CCN1CC(C)C (single isomer, unassigned) [Example 11, 1-(4-fluorophenyl)-5-(1-isobutyl-4-((2-methyl-2H-1,2,3-triazol-4-yl)sulfonyl)piperazin-2-yl)-6-methyl-1H-indazole] | 20
Cc1cc2c(cnn2-c2ccc(F)cc2)cc1C1CN(S(=O)(=O)c2ccn(C)n2)CCN1CC(C)C (single isomer, unassigned) [Example 20, 1-(4-fluorophenyl)-5-(1-isobutyl-4-((1-methyl-1H-pyrazol-3-yl)sulfonyl)piperazin-2-yl)-6-methyl-1H-indazole] | 130
Cc1cc2c(cnn2-c2ccc(F)cc2)cc1C1CN(S(=O)(=O)c2cnn(C)n2)CCN1CC(C)C(F)(F)F (single isomer, unassigned) [Example 21, 1-(4-fluorophenyl)-6-methyl-5-(4-((2-methyl-2H-1,2,3-triazol-4-yl)sulfonyl)-1-(3,3,3-trifluoro-2-methylpropyl)piperazin-2-yl)-1H-indazole] | 120
Cc1cc2c(cnn2-c2ccc(F)cc2)cc1[C@@H]1CN(S(=O)(=O)c2cnn(C)n2)CCN1CC(C)C(F)(F)F (single isomer, unassigned) [Example 23] | 13
Cc1cc2c(cnn2-c2ccc(F)cc2)cc1C1CN(S(=O)(=O)c2cnn(C)n2)CCN1C1CCC1 (single isomer, unassigned) [Example 25, 5-(1-cyclobutyl-4-((2-methyl-2H-1,2,3-triazol-4-yl)sulfonyl)piperazin-2-yl)-1-(4-fluorophenyl)-6-methyl-1H-indazole] | 77
COC1CC(N2CCN(S(=O)(=O)c3cnn(C)n3)CC2c2cc3cnn(-c4ccc(F)cc4)c3cc2C)C1 (single isomer, unassigned) [Example 26, 1-(4-fluorophenyl)-5-(1-(3-methoxycyclobutyl)-4-((2-methyl-2H-1,2,3-triazol-4-yl)sulfonyl)piperazin-2-yl)-6-methyl-1H-indazole] | 180
Cc1cc2c(cnn2-c2ccc(F)cc2)cc1C1CN(S(=O)(=O)c2cnn(C)n2)CCN1C1CCCC1 (single isomer, unassigned) [Example 27, 5-(1-cyclopentyl-4-((2-methyl-2H-1,2,3-triazol-4-yl)sulfonyl)piperazin-2-yl)-1-(4-fluorophenyl)-6-methyl-1H-indazole] | 47
Cc1cc2c(cnn2-c2ccc(F)cc2)cc1C1CN(S(=O)(=O)c2cnn(C)n2)CCN1C1COC1 (single isomer, unassigned) [Example 28, 1-(4-fluorophenyl)-6-methyl-5-(4-((2-methyl-2H-1,2,3-triazol-4-yl)sulfonyl)-1-(oxetan-3-yl)piperazin-2-yl)-1H-indazole] | 230
Cc1cc2c(cnn2-c2ccc(F)cc2)cc1C1CN(S(C)(=O)=O)CCN1Cc1ccccc1 (single isomer, unassigned) [Example 29, 5-(1-benzyl-4-(methylsulfonyl)piperazin-2-yl)-1-(4-fluorophenyl)-6-methyl-1H-indazole] | 74
Cc1cc2c(cnn2-c2ccc(F)cc2)cc1C1CN(S(C)(=O)=O)CCN1CC1CCOCC1 (single isomer, unassigned) [Example 30, 1-(4-fluorophenyl)-6-methyl-5-(4-(methylsulfonyl)-1-((tetrahydro-2H-pyran-4-yl)methyl)piperazin-2-yl)-1H-indazole] | 90
Cc1ncc(S(=O)(=O)N2CCN(CC(C)C)C(c3cc4cnn(-c5ccc(F)cc5)c4cc3C)C2)s1 (single isomer, unassigned) [Example 31, 5-((3-(1-(4-fluorophenyl)-6-methyl-1H-indazol-5-yl)-4-isobutylpiperazin-1-yl)sulfonyl)-2-methylthiazole] | 11
Cc1cc2c(cnn2-c2ccc(F)cc2)cc1C1CN(S(=O)(=O)c2cnn(C)n2)CCN1CC(C)C(F)(F)F (single isomer, unassigned) [Example 33] | 11
COCCS(=O)(=O)N1CCN(CC(C)C)C(c2cc3cnn(-c4ccc(F)cc4)c3cc2C)C1 (single isomer, unassigned) [Example 45, 1-(4-fluorophenyl)-5-(1-isobutyl-4-((2-methoxyethyl)sulfonyl)piperazin-2-yl)-6-methyl-1H-indazole] | 510
Cc1cc2c(cnn2-c2ccc(F)cc2)cc1C1CN(S(=O)(=O)CC2CC2)CCN1CC(C)C (single isomer, unassigned) [Example 46, 5-(4-((cyclopropylmethyl)sulfonyl)-1-isobutylpiperazin-2-yl)-1-(4-fluorophenyl)-6-methyl-1H-indazole] | 310
COCCn1cc(S(=O)(=O)N2CCN(CC(C)C)C(c3cc4cnn(-c5ccc(F)cc5)c4cc3C)C2)cn1 (single isomer, unassigned) [Example 47, 1-(4-fluorophenyl)-5-(1-isobutyl-4-((1-(2-methoxyethyl)-1H-pyrazol-4-yl)sulfonyl)piperazin-2-yl)-6-methyl-1H-indazole] | 23
